Experimental data published in patent EP0088462A2, “Anti-inflammatory and rheumatic composition containing organophosphonate and steroid” (THE PROCTER & GAMBLE COMPANY, priority 1982, dated 1983).
Marks after values point to notes of the source that are not given here.

System: rat adjuvant arthritis
Test: Rat adjuvant arthritis (Example I): paw edema, bone changes and systemic parameters after 46 days of daily treatment
Assay type: in vivo, male Lewis rats
Conditions: for Group Average Fat Free Dry Weight of Bone from Tibias: daily
Excerpt: One hundred and twenty-five (125) male Lewis rats weighing between 160 and 180 grams each were randomly divided into 12 groups of ten rats each, except the vehicle control group which had 15 rats. Each group was placed under a treatment regimen as described in the table below for a 46 day period.
Adjuvant arthritis was induced in groups one through twelve by a single intradermal injection of heat-killed Mycobacterium butyricum in paraffin oil. The drug treatments wen begun on the same day that the adjuvant was administered, and continued on a daily basis through the study. Drug doses were adjusted each week for changes in body weight.
Paw edema was measured weekly by liquid displacement, immersing the hind legs in a liquid reservoir to the anatomical hair line. Bone changes were evaluated radiographically and by chemical analysis at the conclusion of the study. Ectopic calcification was quantitated by use of a point-counting system with grids of one millimeter square.
The diphosphonate treatment solution for use on the animals in group 2, 3, 7-12, was prepared as follows: the disodium salt of dichloromethane diphosphonic acid was dissolved in saline, adjusted to a pH of 7.4 using sodium hydroxide, and sterilized by vacuum filtration (0.2 micron). The concentration of this solution was adjusted to a concentration of 5 mg of C12 MDP (disodium salt) per milliliter of solution.
The prednisolone to be administered was suspended in […]. The concentration of this suspension was adjusted to 0.10 milligram per milliliter so that it could be administered at a dose volume of 0.5 ml/100 gm body weight.
The disodium salt of Cl2MDP was administered by subcutaneous ventral flank injections. The prednisolone was administered by gastric intubation.
At the end of the treatment period, the rats were sacrificed, necropsied, and the effects of the treatment on the rats were measured in the categories listed below.

[1] = single agent versus placebo (saline and methyl cellulose)

Structure (SMILES): O=P(O)(O)C(Cl)(Cl)P(=O)(O)O [Cl2MDP, Dichloromethanediphosphonic acid]
- Group Average Fat Free Dry Weight of Bone from Tibias (Cl2MDP 2 mg/kg subcutaneous, Prednisolone none): 372.48*
- Group Average Fat Free Dry Weight of Bone from Tibias (Cl2MDP 5 mg/kg subcutaneous, Prednisolone none): 382.42*
- inhibiting bone changes associated with arthritic disease [1]: significantly more effective than the placebo
- inhibiting loss of body, weight [1]: significantly more effective than the placebo
- inhibiting paw edema [1]: significantly more effective than the placebo
- inhibiting spleen weight/body weight ratio [1]: significantly more effective than the placebo

Structure (SMILES): C[C@]12C=CC(=O)C=C1CC[C@@H]1[C@@H]2[C@@H](O)C[C@@]2(C)[C@H]1CC[C@]2(O)C(=O)CO [Prednisolone, 11 β, 17, 21-Trihydroxypregna-1,4-diene-3, 20-dione]
- Group Average Fat Free Dry Weight of Bone from Tibias (Cl2MDP none, Prednisolone 0.25 mg/kg by gastric intubation): 308.96
- Group Average Fat Free Dry Weight of Bone from Tibias (Cl2MDP none, Prednisolone 0.50 mg/kg by gastric intubation): 311.56
- Group Average Fat Free Dry Weight of Bone from Tibias (Cl2MDP none, Prednisolone 2.50 mg/kg by gastric intubation): 315.58
- inhibiting pathological caldivication (prednisolone alone): effective
- inhibiting the calcium and phosphorus in bone (prednisolone alone): effective
- inhibiting paw edema [1]: effective
